*1 amine or outer side, *2 acyl side, *3 side chain or, on linkers, in order; H or OH if unused. Where a SMILES comes first, the peptide text is derived from it. Bridges are numbered along the chain shown (N, C = ends). [ ]: non-standard residue; d: D form. TATA = O=C(CC[*:1])N1CN(C(=O)CC[*:2])CN(C(=O)CC[*:3])C1; Agb = N=C(N)NCC[C@H](N)C(=O)O
Molecular target: T1, Coagulation factor XII (Homo sapiens, UniProt P00748)
T1 sequence (P00748 whole entry): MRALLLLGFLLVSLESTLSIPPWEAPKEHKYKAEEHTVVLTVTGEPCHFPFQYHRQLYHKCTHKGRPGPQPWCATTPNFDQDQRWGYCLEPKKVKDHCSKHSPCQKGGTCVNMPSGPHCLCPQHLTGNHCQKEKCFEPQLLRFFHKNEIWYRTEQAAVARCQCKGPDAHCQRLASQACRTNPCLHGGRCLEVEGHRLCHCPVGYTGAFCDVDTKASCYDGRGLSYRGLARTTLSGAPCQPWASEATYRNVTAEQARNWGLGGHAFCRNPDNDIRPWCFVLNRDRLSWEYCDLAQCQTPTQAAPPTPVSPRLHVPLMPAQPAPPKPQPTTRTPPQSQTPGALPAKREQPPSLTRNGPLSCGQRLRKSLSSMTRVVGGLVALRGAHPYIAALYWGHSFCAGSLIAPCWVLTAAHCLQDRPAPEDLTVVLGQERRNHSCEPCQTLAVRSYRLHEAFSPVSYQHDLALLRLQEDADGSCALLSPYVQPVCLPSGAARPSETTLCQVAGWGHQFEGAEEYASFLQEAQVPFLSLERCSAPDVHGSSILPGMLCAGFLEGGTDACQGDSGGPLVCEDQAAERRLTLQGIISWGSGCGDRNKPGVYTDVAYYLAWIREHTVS
Experiment: Inhibition of human beta factor 12a using fluorogenic substrate Boc-Gln-Gly-Arg-AMC preincubated for 10 mins followed by addition of substrate measured every min for 30 mins

SMILES | Ki [nM]
CC(C)C[C@@H]1NC(=O)[C@H](CCC(N)=O)NC(=O)[C@H](CCCNC(=N)N)NC(=O)[C@@H]2CSCCC(=O)N3CN(CN(C3)C(=O)CCSC[C@H](NC(=O)[C@@H](N)CCCNC(=N)N)C(=O)N[C@@H](Cc3ccccc3)C(=O)N[C@@H](CCCNC(=N)N)C(=O)N[C@@H](C(C)C)C(=O)N3CCC[C@H]3C(=O)N2)C(=O)CCSC[C@@H](C(=O)N[C@@H](CCCNC(=N)N)C(=O)N[C@@H](Cc2c[nH]c3ccccc23)C(=O)O)NC(=O)[C@H](CCCNC(=N)N)NC1=O (H-RCFRVPCRQLRCRW-OH; linker 2-7-12 via TATA) | 570
CC(C)C[C@@H]1NC(=O)[C@H](CCC(N)=O)NC(=O)[C@H](CCCNC(=N)N)NC(=O)[C@@H]2CSCCC(=O)N3CN(CN(C3)C(=O)CCSC[C@H](NC(=O)[C@@H](N)CCCNC(=N)N)C(=O)N[C@@H](Cc3ccccc3)C(=O)N[C@@H](CCCNC(=N)N)C(=O)N[C@@H](CC(C)C)C(=O)N3CCC[C@H]3C(=O)N2)C(=O)CCSC[C@@H](C(=O)O)NC(=O)[C@H](CCCNC(=N)N)NC1=O (H-RCFRLPCRQLRC-OH; linker 2-7-12 via TATA) | 9.3
CC[C@H](C)[C@@H]1NC(=O)[C@@H](NC(=O)[C@@H](N)CCCNC(=N)N)CSCCC(=O)N2CN3CN(C2)C(=O)CCSC[C@H](NC(=O)[C@@H]2CCCN2C(=O)[C@H](CC(C)C)NC(=O)[C@H](CCCNC(=N)N)NC1=O)C(=O)N[C@@H](CCCNC(=N)N)C(=O)N[C@@H](CCC(N)=O)C(=O)N[C@@H](CC(C)C)C(=O)N[C@@H](CCCNC(=N)N)C(=O)N[C@H](C(=O)N[C@@H](CCCNC(=N)N)C(=O)N[C@@H](Cc1c[nH]c2ccccc12)C(=O)O)CSCCC3=O (H-RCIRLPCRQLRCRW-OH; linker 2-7-12 via TATA) | 310
CC(C)C[C@@H]1NC(=O)[C@H](CCC(N)=O)NC(=O)[C@H](CCCNC(=N)N)NC(=O)[C@@H]2CSCCC(=O)N3CN(CN(C3)C(=O)CCSC[C@@H](C(=O)N[C@@H](CCCNC(=N)N)C(=O)O)NC(=O)[C@H](CCCNC(=N)N)NC1=O)C(=O)CCSC[C@H](NC(=O)[C@H](N)CCCNC(=N)N)C(=O)N[C@@H](Cc1ccccc1)C(=O)N[C@@H](CCCNC(=N)N)C(=O)N[C@@H](CC(C)C)C(=O)N1CCC[C@H]1C(=O)N2 | 34.4
CC(C)C[C@@H]1NC(=O)[C@H](CCC(N)=O)NC(=O)[C@H](CCCNC(=N)N)NC(=O)[C@@H]2CSCCC(=O)N3CN(CN(C3)C(=O)CCSC[C@H](NC(=O)[C@@H](N)CCCNC(=N)N)C(=O)N[C@@H](Cc3ccc(-c4ccccc4)cc3)C(=O)N[C@@H](CCCNC(=N)N)C(=O)N[C@@H](CC(C)C)C(=O)N3CCC[C@H]3C(=O)N2)C(=O)CCSC[C@@H](C(=O)N[C@@H](CCCNC(=N)N)C(=O)N[C@@H](Cc2c[nH]c3ccccc23)C(=O)O)NC(=O)[C@H](CCCNC(=N)N)NC1=O | > 1000
CC(C)C[C@@H]1NC(=O)[C@H](Cc2cnc[nH]2)NC(=O)[C@H](CCCNC(=N)N)NC(=O)[C@@H]2CSCCC(=O)N3CN(CN(C3)C(=O)CCSC[C@H](NC(=O)[C@@H](N)CCCNC(=N)N)C(=O)N[C@@H](Cc3ccccc3)C(=O)N[C@@H](CCCNC(=N)N)C(=O)N[C@@H](CC(C)C)C(=O)N3CCC[C@H]3C(=O)N2)C(=O)CCSC[C@@H](C(=O)N[C@@H](CCCNC(=N)N)C(=O)N[C@@H](Cc2c[nH]c3ccccc23)C(=O)O)NC(=O)[C@H](CCCNC(=N)N)NC1=O (H-RCFRLPCRHLRCRW-OH; linker 2-7-12 via TATA) | > 3000
CC(C)C[C@@H]1NC(=O)[C@H](CCC(N)=O)NC(=O)[C@H](CCCNC(=N)N)NC(=O)[C@@H]2CSCCC(=O)N3CN(CN(C3)C(=O)CCSC[C@H](NC(=O)[C@@H](N)CCCNC(=N)N)C(=O)N[C@@H](Cc3ccccc3)C(=O)N[C@@H](CCCCN)C(=O)N[C@@H](CC(C)C)C(=O)N3CCC[C@H]3C(=O)N2)C(=O)CCSC[C@@H](C(=O)N[C@@H](CCCNC(=N)N)C(=O)N[C@@H](Cc2c[nH]c3ccccc23)C(=O)O)NC(=O)[C@H](CCCNC(=N)N)NC1=O (H-RCFKLPCRQLRCRW-OH; linker 2-7-12 via TATA) | 111
CCCC[C@@H]1NC(=O)[C@H](CCC(N)=O)NC(=O)[C@H](CCCNC(=N)N)NC(=O)[C@@H]2CSCCC(=O)N3CN(CN(C3)C(=O)CCSC[C@H](NC(=O)[C@@H](N)CCCNC(=N)N)C(=O)N[C@@H](Cc3ccccc3)C(=O)N[C@@H](CCCNC(=N)N)C(=O)N[C@@H](CC(C)C)C(=O)N3CCC[C@H]3C(=O)N2)C(=O)CCSC[C@@H](C(=O)N[C@@H](CCCNC(=N)N)C(=O)N[C@@H](Cc2c[nH]c3ccccc23)C(=O)O)NC(=O)[C@H](CCCNC(=N)N)NC1=O | 30.6

Now from value to compound:

Ki [nM] | SMILES
40 | Cc1ccccc1C[C@@H]1NC(=O)[C@@H](NC(=O)[C@@H](N)CCCNC(=N)N)CSCCC(=O)N2CN3CN(C2)C(=O)CCSC[C@H](NC(=O)[C@@H]2CCCN2C(=O)[C@H](CC(C)C)NC(=O)[C@H](CCCNC(=N)N)NC1=O)C(=O)N[C@@H](CCCNC(=N)N)C(=O)N[C@@H](CCC(N)=O)C(=O)N[C@@H](CC(C)C)C(=O)N[C@@H](CCCNC(=N)N)C(=O)N[C@H](C(=O)N[C@@H](CCCNC(=N)N)C(=O)N[C@@H](Cc1c[nH]c2ccccc12)C(=O)O)CSCCC3=O
94 | CC(C)C[C@@H]1NC(=O)[C@H](CCC(N)=O)NC(=O)[C@H](CCCNC(=N)N)NC(=O)[C@@H]2CSCCC(=O)N3CN(CN(C3)C(=O)CCSC[C@H](NC(=O)[C@@H](N)CCCNC(=N)N)C(=O)N[C@@H](Cc3c[nH]c4ccc(O)cc34)C(=O)N[C@@H](CCCNC(=N)N)C(=O)N[C@@H](CC(C)C)C(=O)N3CCC[C@H]3C(=O)N2)C(=O)CCSC[C@@H](C(=O)N[C@@H](CCCNC(=N)N)C(=O)N[C@@H](Cc2c[nH]c3ccccc23)C(=O)O)NC(=O)[C@H](CCCNC(=N)N)NC1=O
39 | Cc1ccc(C[C@@H]2NC(=O)[C@@H](NC(=O)[C@@H](N)CCCNC(=N)N)CSCCC(=O)N3CN4CN(C3)C(=O)CCSC[C@H](NC(=O)[C@@H]3CCCN3C(=O)[C@H](CC(C)C)NC(=O)[C@H](CCCNC(=N)N)NC2=O)C(=O)N[C@@H](CCCNC(=N)N)C(=O)N[C@@H](CCC(N)=O)C(=O)N[C@@H](CC(C)C)C(=O)N[C@@H](CCCNC(=N)N)C(=O)N[C@H](C(=O)N[C@@H](CCCNC(=N)N)C(=O)N[C@@H](Cc2c[nH]c3ccccc23)C(=O)O)CSCCC4=O)cc1
32.2 | CC(C)C[C@@H]1NC(=O)[C@H](CCC(N)=O)NC(=O)[C@H](CCCNC(=N)N)NC(=O)[C@@H]2CSCCC(=O)N3CN(CN(C3)C(=O)CCSC[C@H](NC(=O)[C@@H](N)CCCNC(=N)N)C(=O)N[C@@H](Cc3ccc(O)cc3)C(=O)N[C@@H](CCCNC(=N)N)C(=O)N[C@@H](CC(C)C)C(=O)N3CCC[C@H]3C(=O)N2)C(=O)CCSC[C@@H](C(=O)N[C@@H](CCCNC(=N)N)C(=O)N[C@@H](Cc2c[nH]c3ccccc23)C(=O)O)NC(=O)[C@H](CCCNC(=N)N)NC1=O (H-RCYRLPCRQLRCRW-OH; linker 2-7-12 via TATA)
29.4 | CC(C)CC[C@@H]1NC(=O)[C@H](CCC(N)=O)NC(=O)[C@H](CCCNC(=N)N)NC(=O)[C@@H]2CSCCC(=O)N3CN(CN(C3)C(=O)CCSC[C@H](NC(=O)[C@@H](N)CCCNC(=N)N)C(=O)N[C@@H](Cc3ccccc3)C(=O)N[C@@H](CCCNC(=N)N)C(=O)N[C@@H](CC(C)C)C(=O)N3CCC[C@H]3C(=O)N2)C(=O)CCSC[C@@H](C(=O)N[C@@H](CCCNC(=N)N)C(=O)N[C@@H](Cc2c[nH]c3ccccc23)C(=O)O)NC(=O)[C@H](CCCNC(=N)N)NC1=O
3 | CC(C)C[C@@H]1NC(=O)[C@H](CCC(N)=O)NC(=O)[C@H](CCCNC(=N)N)NC(=O)[C@@H]2CSCCC(=O)N3CN(CN(C3)C(=O)CCSC[C@H](NC(=O)[C@@H](N)CCCNC(=N)N)C(=O)N[C@@H](Cc3cccnc3)C(=O)N[C@@H](CCCNC(=N)N)C(=O)N[C@@H](CC(C)C)C(=O)N3CCC[C@H]3C(=O)N2)C(=O)CCSC[C@@H](C(=O)N[C@@H](CCCNC(=N)N)C(=O)N[C@@H](Cc2c[nH]c3ccccc23)C(=O)O)NC(=O)[C@H](CCCNC(=N)N)NC1=O
1000 | CC(C)C[C@@H]1NC(=O)[C@H](CC(N)=O)NC(=O)[C@H](CCCNC(=N)N)NC(=O)[C@@H]2CSCCC(=O)N3CN(CN(C3)C(=O)CCSC[C@H](NC(=O)[C@@H](N)CCCNC(=N)N)C(=O)N[C@@H](Cc3ccccc3)C(=O)N[C@@H](CCCNC(=N)N)C(=O)N[C@@H](CC(C)C)C(=O)N3CCC[C@H]3C(=O)N2)C(=O)CCSC[C@@H](C(=O)N[C@@H](CCCNC(=N)N)C(=O)N[C@@H](Cc2c[nH]c3ccccc23)C(=O)O)NC(=O)[C@H](CCCNC(=N)N)NC1=O (H-RCFRLPCRNLRCRW-OH; linker 2-7-12 via TATA)
28 | CC(C)C[C@@H]1NC(=O)[C@H](CCC(N)=O)NC(=O)[C@H](CCCNC(=N)N)NC(=O)[C@@H]2CSCCC(=O)N3CN(CN(C3)C(=O)CCSC[C@H](NC(=O)[C@@H](N)CCCNC(=N)N)C(=O)N[C@@H](CC(C)C)C(=O)N[C@@H](CCCNC(=N)N)C(=O)N[C@@H](CC(C)C)C(=O)N3CCC[C@H]3C(=O)N2)C(=O)CCSC[C@@H](C(=O)N[C@@H](CCCNC(=N)N)C(=O)N[C@@H](Cc2c[nH]c3ccccc23)C(=O)O)NC(=O)[C@H](CCCNC(=N)N)NC1=O (H-RCLRLPCRQLRCRW-OH; linker 2-7-12 via TATA)
156 | CC(C)C[C@@H]1NC(=O)[C@H](CCC(N)=O)NC(=O)[C@H](CCCNC(=N)N)NC(=O)[C@@H]2CSCCC(=O)N3CN(CN(C3)C(=O)CCSC[C@H](NC(=O)[C@@H](N)CCCNC(=N)N)C(=O)N[C@@H](Cc3ccccc3)C(=O)N[C@@H](CCNC(=N)N)C(=O)N[C@@H](CC(C)C)C(=O)N3CCC[C@H]3C(=O)N2)C(=O)CCSC[C@@H](C(=O)N[C@@H](CCCNC(=N)N)C(=O)N[C@@H](Cc2c[nH]c3ccccc23)C(=O)O)NC(=O)[C@H](CCCNC(=N)N)NC1=O (H-RCF[Agb]LPCRQLRCRW-OH; linker 2-7-12 via TATA)
